Assay results: patent US9315811B2, “Methods for modulating kallikrein (KLKB1) expression” (Ionis Pharmaceuticals, Inc., priority 2011, dated 2016)
Oligonucleotides are written 5' to 3', each unit as a sugar letter and its base; * is a phosphorothioate linkage, no mark a phosphodiester; rarer units and linkages stand in square brackets, end groups in braces. Plain capitals give the bases only. e = 2'-O-(2-methoxyethyl) (MOE); [5mC] = 5-methylcytosine; d = 2'-deoxy (DNA)

Key:
[1] = test system: C1-INH mRNA; test: Liver RT-PCR analysis of C1-INH mRNA (Example 9); type: in vivo, mouse
Description: (§1) One group of 8 mice was treated with 40 mg/kg ISIS 482584 administered subcutaneously twice a week for 3 weeks (weekly dose of 80 mg/kg). A second group of 8 mice was treated with 40 mg/kg of the control oligonucleotide, ISIS 141923, administered subcutaneously twice a week for 3 weeks (weekly dose of 80 mg/kg). A third group of 8 mice was treated with PBS administered subcutaneously twice a week for 3 weeks. On day 14, all the groups were treated with 12.5 mg/kg ISIS 461756 administered subcutaneously twice a week for 3 weeks (weekly dose of 25 mg/kg). A control group of mice was treated with PBS administered subcutaneously twice a week for 3 weeks but was not administered ISIS 461756.
(§2) At the end of the treatment period, all the groups were injected with 30 mg/kg of Evans Blue solution into the tail vein. The mice were sacrificed 30 min after the Evans Blue solution administration and colons, feet, ears, and intestines were harvested. The liver was also harvested for RNA analysis.
RNA was isolated from the liver for RT-PCR analysis of C1-INH and kallikrein mRNAs. The primer probe set for C1-INH is RTS3218 (forward sequence […], designated herein as SEQ ID NO: 24; reverse sequence […], designated herein as SEQ ID NO: 25; probe sequence […], designated herein as SEQ ID NO: 26). […]

[2] = test system: Kallikrein mRNA; test: Liver RT-PCR analysis of kallikrein mRNA (Example 9); type: in vivo, mouse; details: for Percent inhibition of kallikrein mRNA expression compared to the untreated PBS control: all groups ISIS 461756 12.5 mg/kg twice a week, ASO 40 mg/kg or PBS s.c. twice a week 3 weeks
Description: as §1, §2
RNA was isolated from the liver for RT-PCR analysis of C1-INH and kallikrein mRNAs. The primer probe set for C1-INH is RTS3218 (forward sequence […], designated herein as SEQ ID NO: 24; reverse sequence […], designated herein as SEQ ID NO: 25; probe sequence […], designated herein as SEQ ID NO: 26). The primer probe set for kallikrein is RTS3287 (forward sequence […], designated herein as SEQ ID NO: 27; reverse sequence […], designated herein as SEQ ID NO: 28; probe sequence […], designated herein as SEQ ID NO: 29). The results are presented in Table 20 as percent inhibition compared to the PBS control not treated with ISIS 461756.

[3] = test system: Kallikrein mRNA; test: Kallikrein mRNA and protein expression in mice after subcutaneous ASO (Example 1); type: in vivo, mouse; details: 3 weeks
Description: C57BL/6J-Tyrc-2J mice were treated with 2.5 mg/kg, 5.0 mg.kg, 10.0 mg/kg, 20.0 mg/kg, 40.0 mg/kg, or 80.0 mg/kg (corresponding to 5.0 mg/kg, 10.0 mg/kg, 20.0 mg/kg, 40 mg/kg, 80 mg/kg, or 160 mg/kg per week) of ISIS 482584 administered subcutaneously twice a week for 3 weeks. […] Kallikrein mRNA was reduced by greater than 90% inhibition at a dose of 160 mg/kg per week.

[4] = test system: mice; test: Evans Blue vascular permeability induced by ISIS 461756 (Example 9); details: mouse, in vivo
Description: Vascular permeability induced by ISIS 461756, an antisense oligonucleotide which targets murine C1 inhibitor mRNA, increases vascular permeability in mice and replicates the pathology of hereditary angioedema. The effect of ISIS 482584 on this model was evaluated.
as §1
At the end of the treatment period, all the groups were injected with 30 mg/kg of Evans Blue solution into the tail vein. […]
The harvested tissues from the feet, colon, and intestines were placed in formamide solution overnight to leach out the Evans Blue dye. […] The color intensity of the dye-infused formamide solution was then measured at OD600nm. […]

[5] = test system: mouse kallikrein mRNA; test: Antisense inhibition of murine kallikrein mRNA in mouse primary hepatocytes (Example 1); type: cell-based
Description: Antisense oligonucleotides targeting a murine kallikrein nucleic acid were tested for their effects on kallikrein mRNA in vitro. Cultured mouse primary hepatocytes at a density of 10,000 cells per well were transfected using Cytofectin reagent with 12.5 nM, 25 nM, 50 nM, 100 nM, or 200 nM of antisense oligonucleotide. After a treatment period of approximately 24 hours, RNA was isolated from the cells and mouse kallikrein mRNA levels were measured by quantitative real-time PCR using the murine primer probe set RTS3313 (forward sequence […], designated herein as SEQ ID NO: 21; reverse sequence […], designated herein as SEQ ID NO: 22; probe sequence […], designated herein as SEQ ID NO: 23). Kallikrein mRNA levels were adjusted according to total RNA content, as measured by RIBOGREEN.
The chimeric antisense oligonucleotides were designed as 5-10-5 MOE gapmers. The gapmers are 20 nucleotides in length, wherein the central gap segment is comprised of ten 2′-deoxynucleosides and is flanked on both sides (in the 5′ and 3′ directions) by wings comprising five nucleosides each. Each nucleoside in the 5′ wing segment and each nucleoside in the 3′ wing segment has a 2′-MOE modification. The internucleoside linkages throughout each gapmer are phosphorothioate (P═S) linkages. All cytosine residues throughout each gapmer are 5-methylcytosines.
ISIS 482584 ([…]; incorporated herein as SEQ ID NO: 40), which was one of the antisense oligonucleotides tested in the assay, is targeted to SEQ ID NO: 11 (GENBANK Accession No. NM_008455.2) with a target start site of 1586 and a target stop site of 1605.

[6] = test system: high molecular weight kininogen (HMWK); test: Western blot quantification of HMWK and HMWK cleavage product by densitometer (Example 5); type: in vivo, mouse; details: vs PBS control, dose-dependent
Description: All the groups were then injected with 30 mg/kg of Evans Blue solution in the tail vein. The mice were sacrificed 30 min after the Evans Blue solution administration and colons, feet, and ears were harvested and examined for permeability defects. Blood samples were taken through cardiac puncture.
Treatment with kallikrein antisense oligonucleotide results in stabilization of HMWK. Thus, vascular permeability is reduced in ISIS 482584-treated groups in a dose-dependent manner. […] Thus, reduced HMWK is caused by kallikrein cleavage of HMWK into cleavage products (including bradykinin and HKa). Data are presented in Intensity Units as measured by densitometer.

Row | Substance | C1-INH mRNA expression [1] | Percent inhibition of kallikrein mRNA expression compared to the untreated PBS control [2] [%] | Kallikrein mRNA inhibition ([3]; 160 mg/kg per week s.c.) | Kallikrein mRNA and protein expression ([3]; 5.0-160 mg/kg per week s.c.) | vascular permeability induced by ISIS 461756 [4] | % inhibition ([5]; 12.5 nM) [%] | % inhibition ([5]; 25.0 nM) [%] | % inhibition ([5]; 50.0 nM) [%] | % inhibition ([5]; 100.0 nM) [%] | % inhibition ([5]; 200.0 nM) [%] | kallikrein expression [2] | HMWK levels [6]
1 | ISIS 461756: 5-10-5 MOE gapmer antisense oligonucleotide which targets murine C1 inhibitor mRNA; AAAGTGGTTGATACCCTGGG (SEQ ID NO: 41) (sugars from the 5' end e5 d10 e5, backbone and methylation of C not given here) [reference compound] | significantly reduced | 0 | – | – | – | – | – | – | – | – | – | –
2 | ISIS 482584: 5-10-5 MOE gapmer antisense oligonucleotide targeting murine kallikrein; GGCATATTGGTTTTTGGAAT (SEQ ID NO: 40) (antisense eG*eG*e[5mC]*eA*eT*dA*dT*dT*dG*dG*dT*dT*dT*dT*dT*eG*eG*eA*eA*eT) | – | 78 | greater than 90% | reduced in a dose dependent manner | prevented vascular permeability | 0 | 36 | 17 | 60 | 83 | significantly reduced | higher levels of HMWK
3 | ISIS 141923: control oligonucleotide, a 5-10-5 MOE gapmer with no known murine target; CCTTCCCTGAAGGTTCCTCC (SEQ ID NO: 42) (sugars from the 5' end e5 d10 e5, backbone and methylation of C not given here) [reference compound] | – | 0 | – | – | – | – | – | – | – | – | – | –
